Source: patent US9890185B2, “Urea derivatives useful as kinase inhibitors” (Respivert Limited, priority 2013, dated 2018)

Tests used:
PBMCs = experiment: LPS-induced IL-8 release in PBMC cells (assay b); type: cell-based, human; settings: Homo sapiens, PBMC; LPS-stimulated PBMCs; read-out: IC50 Values for Inhibition of Cytokine Release, PBMCs IL-8
Method: Peripheral blood mononuclear cells (PBMCs) from healthy subjects are separated from whole blood using a density gradient (Lymphoprep, Axis-Shield Healthcare). The PBMCs are seeded in 96 well plates and treated with compounds at the desired concentration for 2 hours before addition of 1 ng/mL LPS (Escherichia Coli 0111:B4 from Sigma Aldrich) for 24 hours under normal tissue culture conditions (37° C., 5% CO2). The supernatant is harvested for determination of IL-8 and TNFα concentrations by sandwich ELISA (Duo-set, R&D systems) and read on the fluorescence microplate reader (Varioskan® Flash, ThermoFisher Scientific). The concentration at 50% inhibition (IC50) of IL-8 and TNFα production is calculated from the dose response curve.

GSK 3α = GSK 3α (Homo sapiens (Human), UniProt P49840); experiment: GSK 3α enzyme inhibition (FRET, Z-LYTE, Method 2); type: biochemical; settings: read-out: IC50 Values for Enzyme Inhibition, GSK3α
Method: The enzyme inhibitory activities of compounds disclosed herein are determined by FRET using synthetic peptides labelled with both donor and acceptor fluorophores (Z-LYTE, Invitrogen Ltd., Paisley, UK).
The following two assay variants can be used for determination of GSK 3α inhibition.
The inhibitory activities of compounds of the invention against the GSK 3α enzyme isoform (Invitrogen), are evaluated by determining the level of activation/phosphorylation of the target peptide. The GSK3-α protein (500 ng/mL, 2.5 μL) is mixed with the test compound (2.5 μL at either 4 μg/mL, 0.4 μg/mL, 0.04 μg/mL, or 0.004 μg/mL) for 2 hr at RT. The FRET peptide (8 μM, 2.5 μL), which is a phosphorylation target for GSK3α, and ATP (40 μM, 2.5 μL) are then added to the enzyme/compound mixture and the resulting mixture incubated for 1 hr. Development reagent (protease, 5 μL) is added for 1 hr prior to detection in a fluorescence microplate reader (Varioskan® Flash, ThermoFisher Scientific).
In all cases, the site-specific protease cleaves non-phosphorylated peptide only and eliminates the FRET signal. Phosphorylation levels of each reaction are calculated using the ratio of coumarin emission (donor) over fluorescein emission (acceptor), for which high ratios indicate high phosphorylation and low ratios indicate low phosphorylation levels. The percentage inhibition of each reaction is calculated relative to non-inhibited control and the 50% inhibitory concentration (IC50 value) is then calculated from the concentration-response curve.
This method follows the same steps as Method 1 above, but utilises a shorter period of mixing of the test compound (105 minutes instead of 2 hours) with the GSK3-α protein.

Sequence of GSK 3α (P49840 whole entry): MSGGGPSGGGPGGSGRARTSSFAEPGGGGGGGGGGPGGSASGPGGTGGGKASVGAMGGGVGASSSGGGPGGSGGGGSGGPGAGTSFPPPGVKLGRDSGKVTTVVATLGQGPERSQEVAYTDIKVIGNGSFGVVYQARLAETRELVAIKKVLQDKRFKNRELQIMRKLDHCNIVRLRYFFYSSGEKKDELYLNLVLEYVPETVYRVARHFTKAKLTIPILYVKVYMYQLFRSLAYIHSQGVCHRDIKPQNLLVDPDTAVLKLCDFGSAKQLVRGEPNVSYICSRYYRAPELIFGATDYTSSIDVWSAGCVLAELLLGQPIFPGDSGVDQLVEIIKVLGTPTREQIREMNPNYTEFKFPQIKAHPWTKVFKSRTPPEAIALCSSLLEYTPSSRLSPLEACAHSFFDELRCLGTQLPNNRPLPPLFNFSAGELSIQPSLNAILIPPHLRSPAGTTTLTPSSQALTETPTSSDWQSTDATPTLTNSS

Row | SMILES | IC50 (GSK 3α) | IC50 (PBMCs)
1 | COCCOCCOCCNC(=O)c1cc(Nc2cc(Oc3ccc(NC(=O)Nc4cc(C(C)(C)C)cc(CC(N)=O)c4OC)c(Cl)c3Cl)ccn2)cc(OC)c1 [38(ag), 3-((4-(4-(3-(3-(2-Amino-2-oxoethyl)-5-(tert-butyl)-2-methoxyphenyl)ureido)-2,3-dichlorophenoxy)pyridin-2-yl)amino)-5-methoxy-N-(2-(2-(2-methoxyethoxy)ethoxy)ethyl)benzamide] | 370 nM | 0.6 nM
2 | COc1cc(Nc2nccc(Oc3ccc(NC(=O)Nc4cc(C(C)(C)C)cc(C(=O)NCCN5CCOCC5)c4OC)c4ccccc34)n2)cc(C(=O)NCCN2CCOCC2)c1 [38(ak), 5-(tert-Butyl)-2-methoxy-3-(3-(4-((2-((3-methoxy-5-((2-morpholinoethyl)carbamoyl)-phenyl)amino)pyrimidin-4-yl)oxy)naphthalen-1-yl)ureido)-N-(2-morpholinoethyl)benzamide] | 461 nM | 1.2 nM
3 | COc1cc(Nc2cc(Oc3ccc(NC(=O)Nc4cc(C(C)(C)C)cc(P(C)(C)=O)c4OC)c4ccccc34)ccn2)cc(C(=O)NCCN2CC[S+]([O-])CC2)c1 [38(am), 3-((4-((4-(3-(5-(tert-Butyl)-3-(dimethylphosphoryl)-2-methoxyphenyl)ureido)naphthalen-1-yl)oxy)pyridin-2-yl)amino)-5-methoxy-N-(2-(1-oxidothiomorpholino)ethyl)benzamide] | 1500 nM | 6.2 nM
4 | COc1cc(Nc2cc(Oc3ccc(NC(=O)Nc4cc(C(C)(C)C)cc(S(C)(=O)=O)c4OC)c4ccccc34)ccn2)ccc1C(=O)NCCN1CCOCC1 [38(ap), 4-((4-((4-(3-(5-(tert-Butyl)-2-methoxy-3-(methylsulfonyl)phenyl)ureido)naphthalen-1-yl)oxy)pyridin-2-yl)amino)-2-methoxy-N-(2-morpholinoethyl)benzamide] | > 5800 nM | 4.5 nM
5 | COc1c(NC(=O)Nc2ccc(Oc3ccnc(Nc4ccccc4)c3)c3ccccc23)cc(C(C)(C)C)cc1[S+](C)[O-] (stereo not shown) [38(b1), 1-(5-(tert-Butyl)-2-methoxy-3-(methylsulfinyl)phenyl)-3-(4-((2-(phenylamino)pyridin-4-yl)oxy)naphthalen-1-yl)urea] | > 9660 nM | 8.3 nM
6 | COc1cccc(Nc2cc(Oc3ccc(NC(=O)Nc4cc(C(C)(C)C)cc(CC(=O)N(C)C)c4OC)c4ccccc34)ccn2)c1 [38(i), 2-(5-(tert-Butyl)-2-methoxy-3-(3-(4-((2-((3-methoxyphenyl)amino)pyridin-4-yl)oxy)naphthalen-1-yl)ureido)phenyl)-N,N-dimethylacetamide] | > 15400 nM | 11.4 nM
7 | COc1cccc(Nc2cc(Oc3ccc(NC(=O)Nc4cc(C(C)(C)C)cc(CC(=O)N5CCOCC5)c4OC)c4ccccc34)ccn2)c1 [38(j), 1-(5-(tert-Butyl)-2-methoxy-3-(2-morpholino-2-oxoethyl)phenyl)-3-(4-((2-((3-methoxyphenyl)amino)pyridin-4-yl)oxy)naphthalen-1-yl)urea] | > 14500 nM | 12.5 nM
8 | COc1c(CC(N)=O)cc(C(C)(C)C)cc1NC(=O)Nc1ccc(Oc2ccnc(Nc3ccccc3)c2)c(F)c1F [38(l), 2-(5-(tert-Butyl)-3-(3-(2,3-difluoro-4-((2-(phenylamino)pyridin-4-yl)oxy)phenyl)ureido)-2-methoxyphenyl)acetamide] | 472 nM | 5.9 nM
9 | COc1c(CNC(C)=O)cc(C(C)(C)C)cc1NC(=O)Nc1ccc(Oc2ccnc(Nc3cc(C)cc(C)c3)c2)c2ccccc12 [38(p), N-(5-(tert-Butyl)-3-(3-(4-((2-((3,5-dimethylphenyl)amino)pyridin-4-yl)oxy)naphthalen-1-yl)ureido)-2-methoxybenzyl)acetamide] | > 15800 nM | 7.2 nM

Further lines, with some results ahead:

Row | IC50 (GSK 3α) | SMILES | IC50 (PBMCs)
10 | 789 nM | COCCOCCOCCNC(=O)c1cc(Nc2cc(Oc3ccc(NC(=O)Nc4cc(C(C)(C)C)cc(C[S+](C)[O-])c4OC)c4ccccc34)ccn2)cc(OC)c1 (stereo not shown) [38(z), 3-((4-((4-(3-(5-(tert-Butyl)-2-methoxy-3-((methylsulfinyl)methyl)phenyl)ureido)naphthalen-1-yl)oxy)pyridin-2-yl)amino)-5-methoxy-N-(2-(2-(2-methoxyethoxy)ethoxy)ethyl)benzamide] | 0.6 nM
11 | 480 nM | COc1cc(Nc2cc(Oc3ccc(NC(=O)Nc4cc(C(C)(C)C)cc(P(C)(C)=O)c4OC)c4ccccc34)ccn2)ccc1C(=O)N1CCN(C)CC1 [79(a), 1-(5-tert-Butyl-3-dimethylphosphoryl-2-methoxy-phenyl)-3-[4-[[2-[3-methoxy-4-(4-methylpiperazine-1-carbonyl)anilino]-4-pyridyl]oxy]-1-naphthyl]urea] | 5.1 nM
12 | 1880 nM | COc1cc(Nc2cc(Oc3ccc(NC(=O)Nc4cc(C(C)(C)C)cc(P(C)(C)=O)c4OC)c4ccccc34)ccn2)ccc1C(=O)NC1CCN(C)CC1 [79(b), 4-[[4-[[4-[(5-tert-Butyl-3-dimethylphosphoryl-2-methoxy-phenyl)carbamoylamino]-1-naphthyl]oxy]-2-pyridyl]amino]-2-methoxy-N-(1-methyl-4-piperidyl)benzamide] | 7.4 nM
13 | 1770 nM | COc1cc(Nc2cc(Oc3ccc(NC(=O)Nc4cc(C(C)(C)C)cc(P(C)(C)=O)c4OC)c4ccccc34)ccn2)ccc1C(=O)NCCN(C)C [79(c), 4-[[4-[[4-[(5-tert-Butyl-3-dimethylphosphoryl-2-methoxy-phenyl)carbamoylamino]-1-naphthyl]oxy]-2-pyridyl]amino]-N-(2-dimethylaminoethyl)-2-methoxy-benzamide] | 7 nM
14 | 957 nM | CNC(=O)c1cc(Nc2cc(Oc3ccc(NC(=O)Nc4cc(C(C)(C)C)cc(P(C)(C)=O)c4OC)c4ccccc34)ccn2)cc(OCCN2CCOCC2)c1 [79(f), 3-[[4-[[4-[(5-tert-Butyl-3-dimethylphosphoryl-2-methoxy-phenyl)carbamoylamino]-1-naphthyl]oxy]-2-pyridyl]amino]-N-methyl-5-(2-morpholinoethoxy)benzamide] | 3.9 nM
15 | 4100 nM | COCCOCCOCCOc1cc(Nc2cc(Oc3ccc(NC(=O)Nc4cc(C(C)(C)C)cc(P(C)(C)=O)c4OC)c4ccccc34)ncn2)cc(OC)c1 [Example 4, 1-(5-(tert-Butyl)-3-(dimethylphosphoryl)-2-methoxyphenyl)-3-(4-((6-((3-methoxy-5-(2-(2-(2-methoxyethoxy)ethoxy)ethoxy)phenyl)amino)pyrimidin-4-yl)oxy)naphthalen-1-yl)urea] | 5.6 nM
16 | 282 nM | COc1cc(Nc2nccc(Oc3ccc(NC(=O)Nc4cc(C(C)(C)C)cc(P(C)(C)=O)c4OC)c4ccccc34)n2)cc(P(C)(C)=O)c1 [Example 21, 1-(5-(tert-Butyl)-3-(dimethylphosphoryl)-2-methoxyphenyl)-3-(4-((2-((3-(dimethylphosphoryl)-5-methoxyphenyl)amino)pyrimidin-4-yl)oxy)naphthalen-1-yl)urea] | 3.2 nM
17 | 280 nM | COc1c(NC(=O)Nc2ccc(Oc3ccnc(Nc4cccc(N=S(C)(C)=O)c4)n3)c3ccccc23)cc(C(C)(C)C)cc1P(C)(C)=O [Example 22, 1-(5-(tert-Butyl)-3-(dimethylphosphoryl)-2-methoxyphenyl)-3-(4-((2-((3-((dimethyl(oxo)-lambda-6-sulfanylidene)amino)phenyl)amino)pyrimidin-4-yl)oxy)naphthalen-1-yl)urea] | 3.3 nM
18 | 7940 nM | COc1c(NC(=O)Nc2ccc(Oc3ccnc(Nc4ccccc4)c3)c3ccccc23)cc(C(C)(C)C)cc1C(=O)NCCN1CCNCC1 [Example 23, 5-(tert-Butyl)-2-methoxy-3-(3-(4-((2-(phenylamino)pyridin-4-yl)oxy)naphthalen-1-yl)ureido)-N-(2-(piperazin-1-yl)ethyl)benzamide] | 6.8 nM
19 | 249 nM | COc1c(NC(=O)Nc2ccc(Oc3ccnc(NC(=O)CN4C[C@@H](C)O[C@@H](C)C4)c3)c3ccccc23)cc(C(C)(C)C)cc1P(C)(C)=O [Example 26, N-(4-((4-(3-(5-(tert-Butyl)-3-(dimethylphosphoryl)-2-methoxyphenyl)ureido)naphthalen-1-yl)oxy)pyridin-2-yl)-2-(cis-2,6-dimethylmorpholino)acetamide] | 2.2 nM
20 | 186 nM | COc1c(NC(=O)Nc2ccc(Oc3ccnc(NC4CCOCC4)n3)c3ccccc23)cc(C(C)(C)C)cc1P(C)(C)=O [Example 31, 1-(5-(tert-Butyl)-3-(dimethylphosphoryl)-2-methoxyphenyl)-3-(4-((2-((tetrahydro-2H-pyran-4-yl)amino)pyrimidin-4-yl)oxy)naphthalen-1-yl)urea] | 2.6 nM
